Data set [1] deals with Ki67 proliferation marker. Nature of the data set: Immunohistochemistry of cryo-sectioned HFOCs: Ki67. It is filed as cell-based, human. The settings on record: HFOCs treated with Galunisertib for 48 h vs untreated. An excerpt: Hair growth percentages is normalized to day 0.
FIG. 5. Galunisertib improves cell proliferation and the WNT signaling in the bulb epithelial compartment. a) Representative IHC images of tissue sections of HFOCs untreated and treated with Galunisertib and stained for KI67 and cleaved caspase 3. Nuclei were counterstained with DAPI. Scale bar, 100 μm. b,c) Adjusted intensity levels of KI67 and cleaved caspase 3 per DP and HB (bulb epithelium) areas, respectively, as measured in tissue sections from HFOCs with and without Galunisertib. All values are mean±SD of HFOCs established from n=8 donors (n>16 HFs per condition). ns p≥0.05, *p≤0.05 by unpaired t-test.
For immunohistochemistry, 2-day HFOCs are used for immunohistochemistry analysis. Briefly, HFs were embedded on a drop of OCT and stored at −80° C. 8 μm cryosections are air-dried and fixed in 4% PFA (for TGFβ2, cleavage Caspase 3, p-SMAD2 and KI67 immunostainings) or cold acetone (for LEF1 and β-catenin immunostaining). Following 2×5 min rinse with PBS, microsections are permeabilized 2× for 10 min with PBS+0.3% Triton X 100 (PBS-T) and then blocked with PBS+10% fetal bovine serum (FBS) for 1 hour at room temperature. Antibodies are diluted in PBS-T+1% FBS and incubation done overnight at 4° C. […]

Data set [2] relates to C57BL/6 depilated male mice. Description: Hair growth in depilated mice under topical treatment (photographs, trichoscopy). The format is in vivo, mouse. The settings on record: for hair growth in magnified photographs of depilated areas: day 9, vs vehicle control. The procedure: FIG. 7. Galunisertib induces hair growth in C57BL/6J mice. a) Mouse treatment scheme. 7-week-old C57BL/6J mice were depilated (day −2) and 2 days later (day 0) started being treated with vehicle (70% ethanol), galunisertib (10 μM and 100 μM) or 3% minoxidil for 21 non-continuous days. b) Photographs of C57BL/6J mice treated with vehicle (control), 10 μM and 100 μM galunisertib or 3% minoxidil at days 0, 5, 9 and 14. c) Magnified photographs of the depilation site of C57BL/6J mice treated with vehicle (Ctr), galunisertib (10 and 100 μM) or minoxidil at days 7 and 9. d) Trichoscopy images of depilated regions at days 8 and 10. N≥3 animals were used per timepoint per condition for image and skin collection; e) Mass spectrometry analysis of skin biopsies retrieved at day 14 from animals treated with 10 μM and 100 μM galunisertib. Values are mean±SD of n=3 animals per condition.
Mice are six-week-old male C57BL/6J mice purchased from the Charles River Laboratories. The animals are housed and allowed to adapt to the laboratory environment for one week before experiments start. Animals are maintained under a 12 h light/dark cycle and fed with regular rodent's chow and tap water ad libitum, at the i3S animal facility.
For depilation and treatments in order to synchronize hair growth cycle in mice, anagen is induced by depilation. Seven-week-old male C57BL/6J mice are anesthetized using 3% isoflurane and their back is shaved using a hair shaver. Hair is then further depilated using cold wax bands (Veet Minima). After the depilation, the excess of wax is removed with mineral oil, and a skin protector spray, Douxo Calm Sérum, is applied, followed by Cavilon, a barrier film spray. To allow for skin to fully recover, topical treatments started two days later. During the procedures mice are under volatile anesthesia (3% isoflurane) and are kept warmed. Mice are photographed with a camara or a trichoscope (Dino-Lite), before topical application of galunisertib (10 μM and 100 μM), minoxidil (3%) or vehicle (70% ethanol). Topical applications are performed using a syringe in order to cover the depilated area only. Hair growth is followed for 21 days, although telogen is apparent at day 18 post-treatment.

For data set [3], the system named is C57BL/6 depilated male mice. Description: Histology (hematoxylin-eosin) of dorsal skin: number of hair follicles. The format is in vivo, mouse. As to the method: (§1) FIG. 8. Galunisertib increases anagenic hair follicle growth. a) Hematoxilin-eosin staining of transversal paraffin sections of the dorsal skin of mice treated with vehicle (control), galunisertib (10 μM and 100 μM) or minoxidil at days 0, 5, 7, 14, 16 and 18 of treatment. Scale bar, 500 μm. b) Number of hair follicles per field view and c) number of hair follicles per field view in the subcutaneous layer at different timepoints along the experiment. d) Ki67 immunostaining of longitudinal paraffin sections of the dorsal skin of mice treated with vehicle (control), galunisertib (10 μM and 100 μM) or minoxidil at days 5, 7 and 14. Scale bar, 200 μm. e) Number of Ki67-positive cells in the hair bulb at days 5, 7 and 14. N≥3 animals per timepoint per condition were analyzed, and N≥4 field views were quantified per animal. Values are mean±SD. *p<0.05; **p<0.01 by Student's t-test.
For histology and immunohistochemistry, dorsal skin from the depilated region is collected from mice at different timepoints across the experiment (days 0, 5, 7, 14 and 18) and fixed in 10% buffered formalin, imbedded in paraffin and sectioned along the transversal and longitudinal plan of the hair follicles (3 μm sections). Standard protocol is used for hematoxylin and eosin staining. For immunohistochemistry, slides are deparaffinized, then antigen retrieval is performed using HistoVT One (#06380-05, Nacalai Tesque Inc.) for 40 min in a steamer, following 20 min of cooling at room temperature (RT). After washing with TBS-0.01% Tween (TBS-T), peroxidase is blocked using Bloxall (#SP-6000, Vector Laboratories Inc.) for 10 min. Slides are then washed with TBS-T, and blocked using 2.5% Normal Horse Serum (#MP7500, Impress universal kit, Vector Laboratories Inc.) for 20 min. Following this, slides are incubated with rabbit anti-Ki67 antibody (D3B5) in 0.25% Normal Horse Serum overnight at 4° C. Next day, after thoroughly washing with TBS-T, the slides are incubated with a secondary anti-mouse/anti-rabbit antibody (#MP7500, Impress universal kit, Vector Laboratories Inc.) for 45 min RT. Impact DAB (#SK-4105, Vector Laboratories Inc.) are used to develop the slides, followed by dehydration and mounting with Entellan (#1.07961.0100, Millipore) following standard procedures.

In data set [4] the test system is Ki67 proliferation marker. Nature of the data set: Ki67 immunohistochemistry of mouse dorsal skin (hair germ). It is filed as in vivo. The procedure: as §1
For histology and immunohistochemistry, dorsal skin from the depilated region is collected from mice at different timepoints across the experiment (days 0, 5, 7, 14 and 18) and fixed in 10% buffered formalin, imbedded in paraffin and sectioned along the transversal and longitudinal plan of the hair follicles (3 μm sections). Standard protocol is used for hematoxylin and eosin staining. […]

`Cc1cccc(-c2nn3c(c2-c2ccnc4ccc(C(N)=O)cc24)CCC3)n1` [Galunisertib]: the “number of bulb epithelial cells staining positive for Ki67” value in data set [1] is on record as “increased number”. In addition, the “Ki67 fluorescence intensity levels” value in data set [1] (bulb epithelium) is given as “higher”. The adverse side effects result in data set [2] (mice under topical galunisertib (10 and 100 μM)) is “no apparent adverse side effects”. Moreover, the “hair growth in magnified photographs of depilated areas” value is given as “marked improvement of hair growth” in data set [2] (topical 10 μM galunisertib) and “marked improvement of hair growth” in data set [2] (topical 100 μM galunisertib, ranked after 10 μM galunisertib). The “hair density by trichoscopy examination of depilated regions” value in data set [2] (topical galunisertib, in particular 10 μM, days 8 and 10) is on record as “increased hair density”. For the same compound, the “macroscopic assessment of hair growth: darkness of depilated area (hair density)” value in data set [2] (topical, galunisertib 10 and 100 μM, minoxidil 3%, vs. control mice, day 5 to day 14) is listed as “consistently darker”. Further, the “number of HFs within the subcutaneous layer (anagenic HFs)” value in data set [3] (day 5, vs vehicle) is “increased number of HFs”. The “number of anagenic HFs” value in data set [3] (day 5 to day 14) is “increased number of anagenic HFs”. Further, the “catagen onset in mice” value in data set [3] (similar timing in all conditions) is “not to be delayed”. Moreover, the “anagenic hair growth (overall)” value in data set [3] (similarly to minoxidil, but more efficiently) is “improves anagenic hair growth”. In data set [3] (transversal HF sections, day 7 to day 14, vs control vehicle treatment), the “number of HF (per field view)” value was “significant increase in the number of HF”. Also, the “persistence of the increased number of anagenic HFs” value in data set [3] (until day 14) is recorded as “perdures until day 14”. The “Ki67-positive cells in the hair germ, comparison with minoxidil” value in data set [4] (day 7) was “more effective than minoxidil”. Besides, the “number of Ki67-positive cells in the hair germ” value in data set [4] (days 5, 7 and 14 post-treatment, vs vehicle treatment) is reported as “increased number of Ki67-positive cells”.
